Measurements published in patent US20130015204A1, “SINGLE-USE CONTAINERS AND USES THEREOF” (priority 2009, published 2013).
Entries after “also recorded” stand apart in the source; their conditions may differ. Like-named read-outs stand apart in the source and are kept apart here.

Experiments:
[1] = water; cited from earlier work
[2] = Long term storage stability studies: HPLC, solutions stored at RT and 4° C. for up to 4 months; conditions: for Long term storage stability of vitamin solution: stored at RT or 4° C., 4 month period; for Time to achieve significant falls at 4° C.: aqueous solution stored at 4° C.; for Time to achieve significant falls at RT: aqueous solution stored at RT
Description: Heat was applied by different methods, including placing the solution in a test tube in a bath of hot water (80° C. or 100° C.) for 15 minutes, or by mixing a concentrated solution with hot water or hot coffee (80° C. or 100° C. for both) for an equivalent time. Long term stability studies were carried out by storing individual vitamin solutions at room temperature and at 4° C. for up to 4 months and sampling these solutions at various intervals. Degradation was assessed by the change in peak area of the HPLC peak specific to each particular compound.
Vitamin solutions were prepared as for the Heat Stability Studies.
Replicate aliquots of these solutions were placed in four 15 mL Falcon tubes. Two of these tubes were stored on a shelf at room temperature (RT) in the laboratory and two in the cold room (4° C.).
At 0, 0.5, 1, 1.5, 2, 3.5, and 4 months, samples were taken from each vial for
HPLC analysis. The high concentration vitamin samples (vitamins BI, B3, B5, and B6) were diluted to 1:250 with Milli-Q water before injection and the low concentration vitamin samples (vitamins B2, B7, B9, and B12) were injected undiluted.
Samples from each of the duplicate solutions described above were injected onto the HPLC in duplicate. HPLC conditions were as described above.
Duplicate injections of the two samples were made and the mean of the four results was reported.
(§1) The percentage change in individual vitamin concentrations relative to the control sample was calculated as: 100×(Atest−Acontrol)/Acontrol, where Atest and Acontrol are peak area ratios (analyte/intemal standard) for the test and control solutions respectively.
For the heat stability studies, statistical analysis was performed by Students t-test. For the storage stability studies, statistical analysis was performed by univariate ANOVA (General Linear Model). All statistical analyses were performed with SPSS 16.

[3] = Heat stability studies: HPLC peak area change after heating, hot water or hot coffee; format: physicochemical; conditions: for Effect of dilution with hot water and coffee on vitamin concentration: dilution with hot water or hot coffee, 80° C. or 100° C.; for Effect of heating solutions on vitamin concentration: heating to either 80° C. or 100° C. for 15 minutes; for % Deviation: vs control; for Vitamin degradation, Heat 80° C.: solution heated 80° C.; for Vitamin degradation, Heat 100° C.: solution heated 100° C.; for Vitamin degradation, Water 80° C.: diluted with hot water 80° C.; for Vitamin degradation, Water 100° C.: diluted with hot water 100° C.
Description: Vitamins were divided into two groups, depending on their solubility. “High concentration” vitamins were sufficiently soluble to be detected by the. HPLC analysis after 1/250 dilution. “Low concentration” vitamins were not sufficiently soluble and could not be detected after 1/250 dilution and therefore a different procedure was adopted for these compounds as described below.
High concentration vitamin (B1, B3, B5, B6) solutions
Solutions were prepared immediately before use in duplicate, using four different methods, described below: a. Dilute 1 mL of each standard solution to 250 mL with Milli-Q water at room temperature (control sample) […]
b. […] Then take a 1 mL sample from each tube and dilute to 250 mL with Milli-Q water at room temperature. c. Dilute 1 mL of each solution to 250 mL with hot water (80° C. or 100° C.). Leave for 15 minutes, then take a sample and cool immediately to room temperature. d. Dilute 1 mL of each solution to 250 mL with hot coffee (80° C. or 100° C.). Leave for 15 minutes, then take a sample and cool immediately to room temperature.
Low Concentration Vitamin (B2, B7, B9, B12) Solutions
Standard solutions were freshly prepared with Milli-Q water as described above. The test solutions below were then immediately prepared in duplicate: a. Use undiluted (control sample)
HPLC conditions were as described above.
as §1
All statistical analyses were performed with SPSS 16.

[4] = greatest percentage change over the 4 month testing period, † non-significant, * significant, ‡ transient at 2 weeks
[5] = storage at RT and 4° C. for up to 4 months
[6] = high concentration vitamin solution, matrix coffee: diluted 1/250 with hot coffee 80° C., 15 minutes
[7] = high concentration vitamin solution, matrix coffee: diluted 1/250 with hot coffee 100° C., 15 minutes
[8] = high concentration vitamin solution, matrix heated: tube in hot water 80° C., 15 minutes
[9] = high concentration vitamin solution, matrix heated: tube in hot water 100° C., 15 minutes
[10] = high concentration vitamin solution, matrix hot water: diluted 1/250 with hot water 80° C., 15 minutes
[11] = high concentration vitamin solution, matrix hot water: diluted 1/250 with hot water 100° C., 15 minutes
[12] = up to 4 months, — = no significant fall
[13] = low concentration vitamin solution, undiluted, heated to 80° C., 15 minutes
[14] = low concentration vitamin solution, undiluted, heated to 100° C., 15 minutes

Compound	Aq. solubility [1] [µg/mL]	Vitamin degradation, Storage 4° C. [2, 4]	Vitamin degradation, Storage RT [2, 4]	Comment (long term storage stability) [2, 5]	Long term storage stability of vitamin solution [2]	Effect of dilution with hot water and coffee on vitamin concentration [3]	Effect of heating solutions on vitamin concentration [3]	% Deviation [3, 6] [%]	% Deviation [3, 7] [%]	% Deviation [3, 8] [%]	% Deviation [3, 9] [%]	% Deviation [3, 10] [%]	% Deviation [3, 11] [%]	Time to achieve significant falls at 4° C. [2, 12] [weeks]	% Deviation [3, 13] [%]	% Deviation [3, 14] [%]	Vitamin degradation, Heat 80° C. ([3]; summary, 15 minutes)	Vitamin degradation, Heat 100° C. ([3]; summary, 15 minutes)	further results
Cc1ncc(C[n+]2csc(CCO)c2C)c(N)n1 [Vitamin B1, Thiamine]	500000	† −2.8%	† −2.4%	Stable for 4 months	stable; also recorded: no statistically significant degradation	unaffected	not affected	0.46	0.58	0.33	0.22	−0.04	−0.26	–	–	–	–	–	–
Cc1cc2nc3c(=O)[nH]c(=O)nc-3n(C[C@H](O)[C@H](O)[C@H](O)CO)c2cc1C [Vitamin B2, riboflavin]	–	−33.6% *	−24.7% *	–	varying levels of degradation; also recorded: little further degradation; also recorded: Significant degradation	–	not significantly affected	–	–	–	–	–	–	2	1.5	2.85	–	–	Time to achieve significant falls at RT [2, 12]: 2 weeks; Degradation after 2 weeks at 4° C. ([2]; storage at 4° C.): 33.6%; Comment: Falls sustained to ([2]; storage at RT and 4° C.): 4 months; Degradation after 2 weeks at RT ([2]; storage at RT): 24.7%
O=C(O)CCCC[C@@H]1SC[C@@H]2NC(=O)N[C@@H]21 [Vitamin B7, biotin]	220	−27.4% ‡	−15.9% ‡	Stable for 4 months	varying levels of degradation; also recorded: no statistically significant degradation; also recorded: transient reductions	–	not significantly affected	–	–	–	–	–	–	–	−0.47	−1.89	†† (non-significant reductions in vitamin concentrations of <2% in response to heat treatment)	†† (non-significant reductions in vitamin concentrations of <2% in response to heat treatment)	–
Cc1ncc(CO)c(CO)c1O.Cl [Vitamin B6, pyroxidine hydrochloride]	–	–	–	–	–	unaffected	not affected	−0.63	−1.47	0.05	−0.28	1.39	1.64	–	–	–	–	–	Comment (long term storage stability) [2]: Stable for 4 months; Vitamin degradation, Storage 4° C. [2]: † −2.5%; Vitamin degradation, Storage RT [2]: † −1.5%
Nc1nc2ncc(CNc3ccc(C(=O)N[C@@H](CCC(=O)O)C(=O)O)cc3)nc2c(=O)[nH]1 [Vitamin B9, folic acid]	1.6	−13.7% *	−100.0% *	At RT, undetectable	varying levels of degradation; also recorded: Significant degradation	–	Statistically significant reductions	–	–	–	–	–	–	2	−1.92	−2.26	–	–	Time to achieve significant falls at RT [2, 12]: 2 weeks; Comment: At 4° C., significant change only at ([2]; storage at 4° C.): 2 weeks.; Further fall in levels at 1 month ([2]; storage at 4° C., 1 month, beyond the fall at 2 weeks): 5.7%; Degradation after 2 weeks at 4° C. ([2]; storage at 4° C.): 8.0%; Maximum degradation on storage at 4° C. ([2]; storage at 4° C., 4 months): 13.7%; Degradation after 2 weeks at RT ([2]; storage at RT): 10.0%; Level on storage at RT after the 2 week sample ([2]; storage at RT, sampling times from 1 month to 4 months): undetectable; also recorded: complete elimination
cyanocobalamin [Vitamin B12]	12.5	† −1.4%	† −1.2%	–	stable; also recorded: no statistically significant degradation	–	not significantly affected	–	–	–	–	–	–	–	−0.14	−0.18	†† (non-significant reductions in vitamin concentrations of <2% in response to heat treatment)	†† (non-significant reductions in vitamin concentrations of <2% in response to heat treatment)	–
NC(=O)c1cccnc1 [Vitamin B3, niacinamide]	–	† −1.1%	† −1.8%	Stable for 4 months	stable; also recorded: no statistically significant degradation	Statistically significant reductions	not affected	−3.72	−3.62	−0.24	−0.86	0.33	0.4	–	–	–	†† (non-significant reductions in vitamin concentrations of <2% in response to heat treatment)	†† (non-significant reductions in vitamin concentrations of <2% in response to heat treatment)	Vitamin degradation, Water 80° C. ([3]; summary, 15 minutes): †† (non-significant reductions in vitamin concentrations of <2% in response to heat treatment); Vitamin degradation, Water 100° C. ([3]; summary, 15 minutes): †† (non-significant reductions in vitamin concentrations of <2% in response to heat treatment)
calcium (+)-pantothenate [Vitamin B5]	–	−3.9% *	−3.3% *	–	varying levels of degradation; also recorded: significant degradation	unaffected	Statistically significant reductions	1.78	0.31	−2.78	−2.27	−0.77	−1.15	2	–	–	–	–	Time to achieve significant falls at RT ([2]; up to 4 months): 1.5 months; Comment: Falls sustained to ([2]; storage at RT and 4° C.): 4 months; Comment: size of falls at all times ([2]; storage at RT and 4° C., up to 4 months): < 5%; Degradation at any time for either temperature ([2]; storage at RT or 4° C., entire 4 month test period): less than 4%; Vitamin degradation, Coffee 80° C. ([3]; summary, diluted with hot coffee 80° C., 15 minutes): †† (non-significant reductions in vitamin concentrations of <2% in response to heat treatment); Vitamin degradation, Coffee 100° C. ([3]; summary, diluted with hot coffee 100° C., 15 minutes): †† (non-significant reductions in vitamin concentrations of <2% in response to heat treatment); Vitamin degradation, Water 80° C. ([3]; summary, 15 minutes): †† (non-significant reductions in vitamin concentrations of <2% in response to heat treatment); Vitamin degradation, Water 100° C. ([3]; summary, 15 minutes): †† (non-significant reductions in vitamin concentrations of <2% in response to heat treatment)
